Results taken from ChEMBL document CHEMBL5608113, “Targeting of CAF-induced therapy resistance in CRC organoid-stroma co-cultures” (2024).
Square brackets hold non-standard residues; d marks the D form. Peptide text beside a SMILES is read from it. Arg(Me) = CNC(=N)NCCC[C@H](N)C(=O)O; d3Pal = N[C@H](Cc1cccnc1)C(=O)O; azaGly = NNC(=O)O

Assays:
Type in all cases: functional, Homo sapiens
Conditions in all cases: Homo sapiens, read-out: Cell Viability; for viability at 10 µM: Concentration 10 uM; for viability at 1 µM: Concentration 1 uM
Colon cancer organoid [1] = experiment: Targeting of F14 CAF-induced therapy resistance in O14 CRC organoid-stroma co-culture. Cell viability is reported without Gefitinib.
Colon cancer organoid [2] = experiment: Targeting of F14 CAF-induced therapy resistance in O14 CRC organoid-stroma co-culture. Cell viability is reported with Gefitinib.
Colon cancer organoid [3] = experiment: Targeting of F14 CAF-induced therapy resistance in O23 CRC organoid-stroma co-culture. Cell viability is reported without Gefitinib.
Colon cancer organoid [4] = experiment: Targeting of F14 CAF-induced therapy resistance in O23 CRC organoid-stroma co-culture. Cell viability is reported with Gefitinib.
Colon cancer organoid [5] = experiment: Targeting of F14 CAF-induced therapy resistance in O23 CRC organoid-stroma co-culture. Cell viability is reported with SN-38.

SMILES	viability at 10 µM (Colon cancer organoid [1]) [%]	viability at 10 µM (Colon cancer organoid [2]) [%]	viability at 10 µM (Colon cancer organoid [3]) [%]	viability at 10 µM (Colon cancer organoid [4]) [%]	viability at 10 µM (Colon cancer organoid [5]) [%]	viability at 1 µM (Colon cancer organoid [1]) [%]	viability at 1 µM (Colon cancer organoid [2]) [%]	viability at 1 µM (Colon cancer organoid [3]) [%]	viability at 1 µM (Colon cancer organoid [4]) [%]	viability at 1 µM (Colon cancer organoid [5]) [%]
Cc1sc2c(c1C)C(c1ccc(Cl)cc1)=N[C@@H](CC(=O)OC(C)(C)C)c1nnc(C)n1-2	25.8	6.17	65.2	35.6	53.4					
CN1C(=O)[C@@H](N2CCc3c(nn(Cc4ccccc4)c3Br)C2=O)COc2ccccc21 [TP-030-2]						113	31.6	165	83.4	63.7
CC(C)(C#Cc1ccc(NC(=O)COc2ccccc2C(=O)c2ccccc2)c(Cl)c1)C(=O)O [BI 2439]	159	36.7	160	98.3	82.7					
NC1(c2ccc(-c3nc4c(O)ccnn4c3-c3ccccc3)cc2)CCC1						98.8	49.5	122	69.1	65
CC(C)Oc1ccc(-c2c[nH]cc2CN(C)CCO)cc1	72	58.5	129	90.2	80.1					
CN([C@@H]1CCc2c(CC(=O)O)c3ccccc3n2C1)S(=O)(=O)c1ccc(F)cc1 [MK-7246]	88.6	43.4	79.7	46.3	76.2					
CCOCCn1cc(C(=O)Nc2ccc(-n3nc(-c4cccnc4)cc3C(F)(F)F)cn2)ccc1=O [BI 1935]	82.6	40.1	98.5	70.8	64.4					
Cc1cn(-c2cc(NC(=O)c3ccc4c(c3)CN(c3cncnc3)C[C@@H]4C)cc(C(F)(F)F)c2)cn1	149	50.6	115	63.8	57.5					
CN(C)[C@H]1CCN(c2cc(-c3ccccc3)nc3ccnn23)C1 [(S)-ZINC-3573]	68.9	33.4	98.9	55.6	49.3					
COc1cc2c(cc1NS(=O)(=O)c1ccc(Br)cc1C)n(C)c(=O)n2C	86.7	57.4	169	69.8	117					
COc1cc2c(cc1OCCCN1CCCC1)N=C(N)C21CCC1	82.9	46.9	122	55.4	76.1					
O=C(O)[C@H]1[C@H](Cn2nnc3ccccc3c2=O)CC[C@@H]1C(=O)c1ccc(OCCC2CCOCC2)cc1 [BAY-7598]						122	48.5	130	41.8	99.1
O=C(/C=C/N1C[C@H]2C[C@@H]1CN2c1ccccn1)c1ccccc1O	109	70.1	77.2	38.6	45.4					
CNC(=N)NCCC[C@H](NC(=O)[C@H](CC(C)C)NC(=O)NNC(=O)[C@H](Cc1ccccc1)NC(=O)[C@H](CO)NC(=O)[C@H](CC(N)=O)NC(=O)[C@@H](Cc1cccnc1)NC(=O)[C@H](N)Cc1ccc(O)cc1)C(=O)NCC(N)=O [KISS1-543] (H-[dY][d3Pal]NSF[azaGly]L[Arg(Me)]G-NH2)	103	62.9	93.8	49.7	71.6					
CCCCN(CCCC)C(=O)CN1C[C@H](c2cc(OC)c3c(c2)OCO3)[C@@H](C(=O)O)[C@@H]1CC(C)(C)CCC						125	44.1	145	50	115
CN(C)C(=O)N1CC[C@H](NC2=Nc3cc(F)ccc3N(CC(F)F)c3ccc(Cl)cc32)C1	87.4	61.6	102	43.7	75.2					
CN1CCN(Cc2cc(NC(=O)c3ccc4c(c3)CN(c3ccccc3)CC4)cc(C(F)(F)F)c2)CC1	115	50.8	112	64.5	63.3					
CCC(F)(F)c1cc(N2CCC(S(C)(=O)=O)CC2)nc2sc(C(N)=O)c(N)c12 [BI-605906]	125	50.7	102	53.3	62.6					
O=C1[C@H](Cc2ccc(O)cc2)N2C(=O)CCN(C(=O)NCc3ccccc3)[C@H]2CN1Cc1cccc2ccccc12	37.1	22	125	85.3	103					
C[C@@H]1CC(=O)Nc2cccc(-c3ccc4c(c3)c(-c3cnn(C)c3)nn4C)c2N1	43.6	21.1	115	69	70.4					
COc1ccc2cc(OCC3(C(=O)O)CN(C(=O)c4ccc(F)cc4)C3)ccc2c1 [PF-04418948]						141	43	142	40.3	81.3
CCC(=O)N[C@@H]1CC[C@H](C(=O)N(C)c2ccc(-c3nc4ccccc4o3)cc2)C1 [BI 99990]	150	37.6	154	69.7	100					
COc1ccccc1C(=O)Nc1cc2c(cc1N1CCCC1)n(C)c(=O)n2C	114	46.1	115	79	84.2					
O=C(NCc1ccccc1)c1ccc(S(=O)(=O)NCc2ccccc2)cc1	103	40.5	97	58.1	82.9					
Cc1cc(C)cc([C@@H]2c3cc(C)ccc3NC(=O)CN2C(=O)c2ccc(Br)s2)c1	85.7	78.3	110	76	82.1					
COc1cc(-c2cn([C@H]3CCc4ccccc4N(CC(F)(F)F)C3=O)nn2)ccc1-n1ccc(C)n1	113	41.1	81.1	38.9	48.6					
CCCOc1ccc([C@H]2[C@H](C(=O)O)[C@@H](c3ccc4c(c3)OCO4)CN2CC(=O)Nc2c(CC)cccc2CC)cc1 [A-192621]						117	27.4	112	48.1	50
CC(=O)c1cc(-c2ccccc2OCC2CC2)c2ncccn12	80.2	73.2	142	76.3	102					
CS(=O)(=O)c1cc(C2(NC(=O)c3cncc4c3cnn4-c3ccc(F)cc3)CC2)ccn1 [BI 639667]						126	39	135	107	94.7
